# From the kinase profiling compilation of Christmann-Franck et al. (2016)
# Legend:
# Assay in all cases: radiometric filter-binding kinase assay, Kinase HotSpot
# Conditions in all cases: compound 0.5 µM; ATP 10 µM
# [1] = target: CDK9 CCNT1 (human) (UniProt P50750+O60563)
# [2] = target: EPHA7 (human) (UniProt Q15375)
# [3] = target: SRC (human) (UniProt P12931)
# [4] = target: CDK4 CCND1 (human) (UniProt P24385+P11802)
# [5] = target: MINK1 (human) (UniProt Q8N4C8)
# [6] = target: EPHB2 (human) (UniProt P29323)
# [7] = target: PRKCB1 (human) (UniProt P05771)
# [8] = target: MAP3K11 (human) (UniProt Q16584)
# [9] = target: RIPK2 (human) (UniProt O43353)
# [10] = target: ALK (human) (UniProt Q9UM73)
# [11] = target: PRKD3 (human) (UniProt O94806)
# [12] = target: MUSK (human) (UniProt O15146)
# [13] = target: NEK9 (human) (UniProt Q8TD19)
# [14] = target: ROS1 (human) (UniProt P08922)
# [15] = target: DAPK1 (human) (UniProt P53355)
# [16] = target: HIPK3 (human) (UniProt Q9H422)
# [17] = target: CAMK2A (human) (UniProt Q9UQM7)
# [18] = target: NEK4 (human) (UniProt P51957)
# [19] = target: TAOK2 (human) (UniProt Q9UL54)
# [20] = target: EPHB4 (human) (UniProt P54760)
# [21] = target: AKT3 (human) (UniProt Q9Y243)
# [22] = target: MAP3K14 (human) (UniProt Q99558)
# [23] = target: NTRK3 (human) (UniProt Q16288)
# [24] = target: CDK7 CCNH MNAT1 (human) (UniProt P50613+P51948+P51946)
# [25] = target: ROCK1 (human) (UniProt Q13464)
# [26] = target: MAPK8 (human) (UniProt P45983)
# [27] = target: CLK3 (human) (UniProt P49761)
# [28] = target: GSK3B (human) (UniProt P49841)
# [29] = target: MAP3K7 TAB1 (human) (UniProt O43318+Q15750)
# [30] = target: CSF1R (human) (UniProt P07333)
# [31] = target: MARK2 (human) (UniProt Q7KZI7)
# [32] = target: RPS6KA4 KD2 (human) (UniProt O75676)
# [33] = target: VRK1 (human) (UniProt Q99986)
# [34] = target: GSG2 (human) (UniProt Q8TF76)
# [35] = target: RPS6KA5 KD2 (human) (UniProt O75582)
# [36] = target: ABL2 (human) (UniProt P42684)
# [37] = target: MLTK (human) (UniProt Q9NYL2)
# [38] = target: MAPK1 (human) (UniProt P28482)
# [39] = target: MET (human) (UniProt P08581)
# [40] = target: CDK5 CDK5R1 p35 (human) (UniProt Q00535+Q15078)
# Sequence of CAMK2A (human) (Q9UQM7 whole entry, looked up): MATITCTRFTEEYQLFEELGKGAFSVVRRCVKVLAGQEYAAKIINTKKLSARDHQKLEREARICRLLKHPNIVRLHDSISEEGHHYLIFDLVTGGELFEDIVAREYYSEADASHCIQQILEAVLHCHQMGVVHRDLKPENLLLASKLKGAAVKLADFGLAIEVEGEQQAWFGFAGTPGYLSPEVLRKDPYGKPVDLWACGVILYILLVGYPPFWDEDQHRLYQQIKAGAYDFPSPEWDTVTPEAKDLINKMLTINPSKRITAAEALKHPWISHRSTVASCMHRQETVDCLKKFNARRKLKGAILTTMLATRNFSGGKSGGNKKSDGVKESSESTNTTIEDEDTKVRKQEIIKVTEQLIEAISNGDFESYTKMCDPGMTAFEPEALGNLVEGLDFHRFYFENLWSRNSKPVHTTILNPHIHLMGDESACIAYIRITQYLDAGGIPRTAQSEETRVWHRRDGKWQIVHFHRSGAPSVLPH
# Sequence of NEK9 (human) (Q8TD19 whole entry, looked up): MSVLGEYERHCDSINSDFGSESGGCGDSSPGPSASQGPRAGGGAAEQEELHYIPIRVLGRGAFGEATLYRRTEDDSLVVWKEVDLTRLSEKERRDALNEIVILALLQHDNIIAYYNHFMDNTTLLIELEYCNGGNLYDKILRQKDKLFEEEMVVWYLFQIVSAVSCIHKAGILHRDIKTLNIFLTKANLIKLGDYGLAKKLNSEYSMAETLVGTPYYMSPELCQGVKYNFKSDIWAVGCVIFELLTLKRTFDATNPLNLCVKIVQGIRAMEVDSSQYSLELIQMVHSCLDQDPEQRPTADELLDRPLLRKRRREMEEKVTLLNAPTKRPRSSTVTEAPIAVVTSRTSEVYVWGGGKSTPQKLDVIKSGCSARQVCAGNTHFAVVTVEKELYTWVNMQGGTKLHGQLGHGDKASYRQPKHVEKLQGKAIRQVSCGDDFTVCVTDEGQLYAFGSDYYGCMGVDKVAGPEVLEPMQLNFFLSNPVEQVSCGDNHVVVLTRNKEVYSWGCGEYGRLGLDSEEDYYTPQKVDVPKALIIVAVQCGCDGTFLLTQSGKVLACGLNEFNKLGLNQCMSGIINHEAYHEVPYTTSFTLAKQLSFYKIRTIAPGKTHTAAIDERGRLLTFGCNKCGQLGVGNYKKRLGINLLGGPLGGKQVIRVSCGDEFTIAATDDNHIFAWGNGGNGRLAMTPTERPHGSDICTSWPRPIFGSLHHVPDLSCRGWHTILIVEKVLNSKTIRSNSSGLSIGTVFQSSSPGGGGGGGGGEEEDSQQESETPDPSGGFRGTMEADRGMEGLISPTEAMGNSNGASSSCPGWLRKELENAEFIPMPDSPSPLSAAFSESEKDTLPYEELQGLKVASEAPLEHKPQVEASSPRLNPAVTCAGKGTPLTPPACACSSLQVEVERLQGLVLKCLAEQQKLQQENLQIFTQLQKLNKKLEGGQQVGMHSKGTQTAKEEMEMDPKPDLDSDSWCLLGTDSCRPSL
# Sequence of PRKCB1 (human) (P05771 whole entry, looked up): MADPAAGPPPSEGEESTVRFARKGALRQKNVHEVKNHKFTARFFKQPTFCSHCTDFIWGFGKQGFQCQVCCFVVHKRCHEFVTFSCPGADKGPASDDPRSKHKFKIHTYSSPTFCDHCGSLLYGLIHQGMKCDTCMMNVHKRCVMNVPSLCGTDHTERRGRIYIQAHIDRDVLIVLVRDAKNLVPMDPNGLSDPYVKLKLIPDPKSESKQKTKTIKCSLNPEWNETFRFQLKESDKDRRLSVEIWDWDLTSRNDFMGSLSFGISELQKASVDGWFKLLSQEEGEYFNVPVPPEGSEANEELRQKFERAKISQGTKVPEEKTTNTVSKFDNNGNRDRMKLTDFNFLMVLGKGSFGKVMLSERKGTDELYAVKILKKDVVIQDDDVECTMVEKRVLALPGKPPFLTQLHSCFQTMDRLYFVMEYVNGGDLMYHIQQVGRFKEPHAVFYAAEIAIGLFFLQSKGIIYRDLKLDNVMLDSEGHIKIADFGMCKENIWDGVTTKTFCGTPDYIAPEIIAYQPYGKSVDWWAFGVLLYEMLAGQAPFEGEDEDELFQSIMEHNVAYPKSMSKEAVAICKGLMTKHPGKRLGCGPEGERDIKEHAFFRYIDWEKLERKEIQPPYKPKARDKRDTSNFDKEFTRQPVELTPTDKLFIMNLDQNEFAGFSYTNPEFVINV
# Sequence of RPS6KA4 KD2 (human) (O75676 whole entry, looked up): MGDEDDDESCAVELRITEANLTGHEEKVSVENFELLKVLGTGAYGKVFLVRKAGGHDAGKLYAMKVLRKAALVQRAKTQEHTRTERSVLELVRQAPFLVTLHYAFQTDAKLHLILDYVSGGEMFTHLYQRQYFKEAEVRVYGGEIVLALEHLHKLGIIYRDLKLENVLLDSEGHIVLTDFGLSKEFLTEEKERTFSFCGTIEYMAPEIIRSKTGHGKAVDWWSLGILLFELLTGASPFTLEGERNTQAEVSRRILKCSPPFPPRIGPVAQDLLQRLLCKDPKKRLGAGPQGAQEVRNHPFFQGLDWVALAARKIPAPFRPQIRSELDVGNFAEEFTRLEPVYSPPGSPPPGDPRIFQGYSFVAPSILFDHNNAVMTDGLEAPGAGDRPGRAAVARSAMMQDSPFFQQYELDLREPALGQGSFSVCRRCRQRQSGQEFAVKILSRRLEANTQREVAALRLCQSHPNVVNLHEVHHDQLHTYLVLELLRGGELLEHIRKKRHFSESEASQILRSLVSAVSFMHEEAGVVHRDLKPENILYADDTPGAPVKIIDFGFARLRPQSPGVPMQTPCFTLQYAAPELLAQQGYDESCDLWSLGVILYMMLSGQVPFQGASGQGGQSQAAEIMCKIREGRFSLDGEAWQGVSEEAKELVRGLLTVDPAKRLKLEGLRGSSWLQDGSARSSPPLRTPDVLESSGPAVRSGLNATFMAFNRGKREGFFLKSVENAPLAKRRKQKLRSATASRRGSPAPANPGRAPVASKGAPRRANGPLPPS
# Sequence of DAPK1 (human) (P53355 whole entry, looked up): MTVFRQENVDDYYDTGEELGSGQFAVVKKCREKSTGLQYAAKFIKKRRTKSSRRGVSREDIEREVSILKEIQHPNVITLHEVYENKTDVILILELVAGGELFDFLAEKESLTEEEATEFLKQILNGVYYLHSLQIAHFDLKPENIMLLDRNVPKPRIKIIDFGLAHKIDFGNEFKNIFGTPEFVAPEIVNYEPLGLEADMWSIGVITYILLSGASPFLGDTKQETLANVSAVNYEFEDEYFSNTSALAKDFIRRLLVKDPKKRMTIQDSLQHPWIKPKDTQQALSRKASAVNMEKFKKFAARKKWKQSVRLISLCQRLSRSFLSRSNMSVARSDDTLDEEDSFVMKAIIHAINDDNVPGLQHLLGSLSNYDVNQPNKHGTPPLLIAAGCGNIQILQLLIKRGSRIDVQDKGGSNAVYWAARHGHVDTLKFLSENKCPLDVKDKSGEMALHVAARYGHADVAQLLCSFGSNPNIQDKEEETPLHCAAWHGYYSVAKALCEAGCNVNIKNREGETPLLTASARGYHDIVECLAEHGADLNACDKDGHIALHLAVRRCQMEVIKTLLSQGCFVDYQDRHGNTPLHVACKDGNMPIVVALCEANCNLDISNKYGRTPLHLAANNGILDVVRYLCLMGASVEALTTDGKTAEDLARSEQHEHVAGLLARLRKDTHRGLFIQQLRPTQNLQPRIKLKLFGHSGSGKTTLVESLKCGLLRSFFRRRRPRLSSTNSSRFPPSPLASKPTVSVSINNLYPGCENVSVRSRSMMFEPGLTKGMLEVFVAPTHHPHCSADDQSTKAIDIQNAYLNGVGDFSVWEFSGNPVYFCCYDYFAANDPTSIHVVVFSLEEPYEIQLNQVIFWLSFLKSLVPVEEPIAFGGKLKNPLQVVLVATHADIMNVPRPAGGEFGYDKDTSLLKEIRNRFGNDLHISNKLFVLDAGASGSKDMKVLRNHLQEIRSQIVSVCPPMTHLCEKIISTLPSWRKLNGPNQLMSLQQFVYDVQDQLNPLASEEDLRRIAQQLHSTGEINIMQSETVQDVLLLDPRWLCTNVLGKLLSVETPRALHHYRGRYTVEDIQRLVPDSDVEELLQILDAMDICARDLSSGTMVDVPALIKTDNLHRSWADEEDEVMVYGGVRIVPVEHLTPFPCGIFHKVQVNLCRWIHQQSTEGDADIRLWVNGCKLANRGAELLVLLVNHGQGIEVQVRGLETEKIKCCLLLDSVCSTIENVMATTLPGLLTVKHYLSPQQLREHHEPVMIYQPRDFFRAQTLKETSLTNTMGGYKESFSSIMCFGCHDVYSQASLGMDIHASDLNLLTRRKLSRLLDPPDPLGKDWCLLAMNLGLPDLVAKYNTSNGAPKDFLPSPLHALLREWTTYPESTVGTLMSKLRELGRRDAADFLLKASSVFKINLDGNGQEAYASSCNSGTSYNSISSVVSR
# Sequence of CLK3 (human) (P49761 whole entry, looked up): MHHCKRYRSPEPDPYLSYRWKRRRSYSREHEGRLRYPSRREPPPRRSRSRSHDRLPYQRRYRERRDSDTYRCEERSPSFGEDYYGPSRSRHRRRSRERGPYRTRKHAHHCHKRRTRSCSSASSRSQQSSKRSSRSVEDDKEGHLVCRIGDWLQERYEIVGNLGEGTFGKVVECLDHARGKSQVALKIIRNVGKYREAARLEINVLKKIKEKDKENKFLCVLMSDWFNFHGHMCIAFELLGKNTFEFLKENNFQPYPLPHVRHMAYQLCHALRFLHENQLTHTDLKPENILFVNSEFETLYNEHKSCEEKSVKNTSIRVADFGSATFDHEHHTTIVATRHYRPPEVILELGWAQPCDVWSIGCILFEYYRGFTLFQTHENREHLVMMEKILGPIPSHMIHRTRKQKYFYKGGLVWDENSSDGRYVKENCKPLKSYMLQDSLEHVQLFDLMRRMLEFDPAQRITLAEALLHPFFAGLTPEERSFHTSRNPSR
SMILES,residual activity [1] [%],residual activity [2] [%],residual activity [3] [%],residual activity [4] [%],residual activity [5] [%],residual activity [6] [%],residual activity [7] [%],residual activity [8] [%],residual activity [9] [%],residual activity [10] [%],residual activity [11] [%],residual activity [12] [%],residual activity [13] [%],residual activity [14] [%],residual activity [15] [%],residual activity [16] [%],residual activity [17] [%],residual activity [18] [%],residual activity [19] [%],residual activity [21] [%],other results
O=S(=O)(c1cccc2cnccc12)N1CCCNCC1,80.7,97.3,85.3,92.2,96.6,83.2,94.6,99.7,86.4,119,65.8,97.6,95.9,101,79,107,99.9,90.7,87.3,94.1,residual activity [20]: 107%; residual activity [22]: 97.7%; residual activity [23]: 85.5%; residual activity [24]: 95.5%; residual activity [25]: 60.2%; residual activity [26]: 89.7%; residual activity [27]: 83.7%; residual activity [28]: 102%; residual activity [29]: 106%; residual activity [30]: 97.9%; residual activity [31]: 108%; residual activity [32]: 81.8%; residual activity [33]: 87.6%; residual activity [34]: 86.6%; residual activity [35]: 62.1%; residual activity [36]: 87.6%; residual activity [37]: 101%; residual activity [38]: 98.1%
COc1ccc(COc2ccc(Cc3cnc(N)nc3N)cc2OC)cc1,92.5,101,97.9,97.4,86.5,87.4,102,101,81.9,97.4,97.1,102,93.3,99.9,102,102,105,92.2,94.7,96.5,residual activity [20]: 90.5%; residual activity [22]: 81.8%; residual activity [24]: 100%; residual activity [25]: 100%; residual activity [26]: 91.9%; residual activity [27]: 98.3%; residual activity [28]: 97.8%; residual activity [29]: 97.9%; residual activity [39]: 76.1%; residual activity [32]: 107%; residual activity [33]: 91.4%; residual activity [34]: 97.7%; residual activity [35]: 103%; residual activity [36]: 107%; residual activity [37]: 97.4%; residual activity [38]: 110%
Nc1cccc(-c2cc3c(Oc4cccc(O)c4)ncnc3[nH]2)c1,63.2,77.2,2.07,88.7,34.7,40.7,113,52.4,30.5,80.9,91,62.8,103,39.7,89.1,94,115,91.4,81.4,96.2,residual activity [40]: 72.2%; residual activity [22]: 69.6%; residual activity [23]: 63.3%; residual activity [24]: 94.2%; residual activity [25]: 94.1%; residual activity [26]: 94.4%; residual activity [27]: 74%; residual activity [28]: 48.1%; residual activity [29]: 63%; residual activity [39]: 110%; residual activity [30]: 13.6%; residual activity [31]: 79%; residual activity [32]: 103%; residual activity [33]: 81.6%; residual activity [34]: 93.3%; residual activity [35]: 83.6%; residual activity [36]: 1.4%; residual activity [37]: 13.9%; residual activity [38]: 114%
